Measurements: article PMC6643297 (Cell metabolism, 2018)

What was measured:
[1] = target: ACC2 (acetyl-CoA carboxylase 2) (Homo sapiens, UniProt O00763); test: ACC2 enzyme inhibition assay; format: biochemical
[2] = target: ACC1 (acetyl-CoA carboxylase 1) (Homo sapiens, UniProt Q13085); test: ACC1 enzyme inhibition assay; format: biochemical

Chain of ACC2 (acetyl-CoA carboxylase 2) (O00763 whole entry): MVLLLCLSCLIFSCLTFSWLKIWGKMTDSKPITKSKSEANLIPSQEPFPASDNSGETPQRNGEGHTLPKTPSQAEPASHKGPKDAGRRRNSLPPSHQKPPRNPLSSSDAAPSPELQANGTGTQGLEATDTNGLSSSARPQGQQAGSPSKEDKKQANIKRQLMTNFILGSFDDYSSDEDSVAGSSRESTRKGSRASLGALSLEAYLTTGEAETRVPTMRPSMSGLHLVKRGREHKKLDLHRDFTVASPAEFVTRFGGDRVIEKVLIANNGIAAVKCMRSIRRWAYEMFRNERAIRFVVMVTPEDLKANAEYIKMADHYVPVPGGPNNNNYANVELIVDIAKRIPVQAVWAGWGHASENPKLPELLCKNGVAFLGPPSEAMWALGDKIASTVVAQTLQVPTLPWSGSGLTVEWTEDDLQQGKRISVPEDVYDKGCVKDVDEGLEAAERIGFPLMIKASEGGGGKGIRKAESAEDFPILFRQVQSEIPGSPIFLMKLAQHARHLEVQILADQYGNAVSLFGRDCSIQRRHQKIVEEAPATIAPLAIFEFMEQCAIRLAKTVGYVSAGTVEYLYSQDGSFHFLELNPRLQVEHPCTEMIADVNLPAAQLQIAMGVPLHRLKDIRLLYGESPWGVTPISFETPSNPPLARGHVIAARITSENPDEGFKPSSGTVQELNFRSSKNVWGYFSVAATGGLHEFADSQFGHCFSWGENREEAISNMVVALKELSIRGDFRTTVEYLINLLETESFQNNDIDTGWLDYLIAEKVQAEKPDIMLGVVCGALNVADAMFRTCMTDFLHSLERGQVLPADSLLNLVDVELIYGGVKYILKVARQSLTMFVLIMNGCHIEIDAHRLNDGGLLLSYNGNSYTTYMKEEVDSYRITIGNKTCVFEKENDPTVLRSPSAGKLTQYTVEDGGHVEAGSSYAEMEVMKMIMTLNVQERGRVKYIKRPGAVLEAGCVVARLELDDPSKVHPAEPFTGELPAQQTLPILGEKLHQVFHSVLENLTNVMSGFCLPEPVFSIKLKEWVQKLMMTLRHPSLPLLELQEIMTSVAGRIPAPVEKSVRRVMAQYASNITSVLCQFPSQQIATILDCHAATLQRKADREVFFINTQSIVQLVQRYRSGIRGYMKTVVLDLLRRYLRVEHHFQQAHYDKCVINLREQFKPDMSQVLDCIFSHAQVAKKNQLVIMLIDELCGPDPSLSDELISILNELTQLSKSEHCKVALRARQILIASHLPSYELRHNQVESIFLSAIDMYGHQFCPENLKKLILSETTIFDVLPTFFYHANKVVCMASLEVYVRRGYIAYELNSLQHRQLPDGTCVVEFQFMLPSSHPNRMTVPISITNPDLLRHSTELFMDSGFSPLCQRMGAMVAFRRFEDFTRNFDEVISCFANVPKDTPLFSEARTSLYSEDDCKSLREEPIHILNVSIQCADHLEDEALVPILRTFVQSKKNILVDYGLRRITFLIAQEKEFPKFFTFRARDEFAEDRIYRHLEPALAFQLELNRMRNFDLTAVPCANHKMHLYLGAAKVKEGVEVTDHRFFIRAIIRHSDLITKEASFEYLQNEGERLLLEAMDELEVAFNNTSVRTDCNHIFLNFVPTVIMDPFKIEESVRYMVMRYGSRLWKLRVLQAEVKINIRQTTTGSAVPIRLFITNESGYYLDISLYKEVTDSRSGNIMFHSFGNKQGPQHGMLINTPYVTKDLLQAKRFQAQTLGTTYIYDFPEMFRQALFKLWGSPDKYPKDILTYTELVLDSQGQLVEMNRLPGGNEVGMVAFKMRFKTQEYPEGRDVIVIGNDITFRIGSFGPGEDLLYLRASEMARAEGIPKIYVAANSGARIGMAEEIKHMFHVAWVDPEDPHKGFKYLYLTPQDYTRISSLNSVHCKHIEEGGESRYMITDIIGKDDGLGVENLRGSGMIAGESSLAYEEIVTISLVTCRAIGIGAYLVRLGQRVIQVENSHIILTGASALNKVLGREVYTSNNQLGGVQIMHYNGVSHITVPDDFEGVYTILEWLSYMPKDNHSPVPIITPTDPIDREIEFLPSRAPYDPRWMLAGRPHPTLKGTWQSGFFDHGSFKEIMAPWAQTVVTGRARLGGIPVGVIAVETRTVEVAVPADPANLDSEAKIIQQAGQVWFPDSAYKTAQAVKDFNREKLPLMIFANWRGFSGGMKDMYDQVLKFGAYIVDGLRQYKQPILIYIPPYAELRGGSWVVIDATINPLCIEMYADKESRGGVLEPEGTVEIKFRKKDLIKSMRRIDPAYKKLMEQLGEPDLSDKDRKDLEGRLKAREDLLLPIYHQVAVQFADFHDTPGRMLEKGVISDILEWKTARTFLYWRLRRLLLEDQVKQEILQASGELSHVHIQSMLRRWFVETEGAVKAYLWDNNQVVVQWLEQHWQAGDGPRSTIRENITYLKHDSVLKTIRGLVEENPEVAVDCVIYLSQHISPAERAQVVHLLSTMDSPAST

## ND-654
[1]
  IC50: 8 nM
[2]
  IC50: 3 nM
